The supplement of paper PMC10307832

How the values were obtained:
Experiment in all cases: relative viability (nuclei count vs DMSO), 5 days (fraction); higher = more cells survive
BAM7 + Crizotinib = compound: CCOC1=CC=CC=C1N=NC2=C(NN(C2=O)C3=NC(=CS3)C4=CC=CC=C4)C [BAM7] + C[C@@H](Oc1cc(-c2cnn(C3CCNCC3)c2)cnc1N)c1c(Cl)ccc(F)c1Cl [Crizotinib] (partner 1 µM)
In short: (§1)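 Medians of duplicate plates are given as relative viability. That measure is the nuclei count in treated wells divided by the count in vehicle wells. Counts were taken on 4× images of lung cancer cell lines in 1536-well plates, 5 days after pin-tool dosing the day after seeding with one drug alone or a fixed anchor-drug dose plus five library-drug doses (not always all listed) in √10 steps.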

BAM7 + Luminespib = compound: CCOC1=CC=CC=C1N=NC2=C(NN(C2=O)C3=NC(=CS3)C4=CC=CC=C4)C [BAM7] + CCNC(=O)c1noc(-c2cc(C(C)C)c(O)cc2O)c1-c1ccc(CN2CCOCC2)cc1 [Luminespib] (partner 0.01 µM)
In short: as §1

[1] = compound: CCn1c(-c2nonc2N)nc2c(C#CC(C)(C)O)ncc(OC[C@H]3CCCNC3)c21 + COc1cccc2cc(-c3nc([C@H]4CC[C@H](C(=O)O)CC4)n4ncnc(N)c34)[nH]c12 [OSI-027] (partner 0.5 µM)
In short: as §1

BAM7 + Pemetrexed = compound: CCOC1=CC=CC=C1N=NC2=C(NN(C2=O)C3=NC(=CS3)C4=CC=CC=C4)C [BAM7] + Nc1nc2[nH]cc(CCc3ccc(C(=O)N[C@@H](CCC(=O)O)C(=O)O)cc3)c2c(=O)[nH]1 [Pemetrexed] (partner 0.2 µM)
In short: as §1

Cell Line | relative viability (BAM7 + Crizotinib; first compound 0.5 µM) | relative viability (BAM7 + Crizotinib; first compound 5 µM) | relative viability (BAM7 + Crizotinib; first compound 15.81 µM) | relative viability (BAM7 + Crizotinib; first compound 50 µM) | relative viability (BAM7 + Luminespib; first compound 0.5 µM) | relative viability (BAM7 + Luminespib; first compound 5 µM) | relative viability (BAM7 + Luminespib; first compound 15.81 µM) | relative viability (BAM7 + Luminespib; first compound 50 µM) | relative viability ([1]; first compound 0.01 µM) | relative viability ([1]; first compound 0.03162 µM) | relative viability ([1]; first compound 0.1 µM) | relative viability ([1]; first compound 0.3162 µM) | relative viability ([1]; first compound 1 µM) | relative viability (BAM7 + Pemetrexed; first compound 0.5 µM) | relative viability (BAM7 + Pemetrexed; first compound 5 µM) | relative viability (BAM7 + Pemetrexed; first compound 15.81 µM) | relative viability (BAM7 + Pemetrexed; first compound 50 µM)
NCI-H1734 | 0.868 | 0.634 | 0.556 | 0.685 | 0.215 | 0.202 | 0.171 | 0.211 | 0.574 | 0.632 | 0.538 | 0.478 | 0.382 | 0.437 | 0.415 | 0.382 | 0.411
NCI-H1755 | 0.917 | 0.935 | 0.829 | 0.85 | 0.431 | 0.495 | 0.525 | 0.524 | 0.704 | 0.697 | 0.704 | 0.69 | 0.638 | 0.401 | 0.417 | 0.423 | 0.408
NCI-H1792 | 0.984 | 1.06 | 1.06 | 0.906 | 0.501 | 0.46 | 0.421 | 0.509 | 0.739 |  | 0.696 | 0.715 | 0.842 | 0.943 | 1.13 | 0.707 | 0.816
NCI-H1915 | 0.892 | 0.918 | 0.874 | 0.891 | 0.769 | 0.886 | 0.833 | 0.76 | 0.625 | 0.648 | 0.573 | 0.629 | 0.652 | 0.425 | 0.505 | 0.524 | 0.46
NCI-H1944 | 0.984 | 1.15 | 0.839 | 0.821 | 0.762 | 0.789 | 0.617 | 0.855 | 0.367 | 0.403 | 0.434 | 0.37 | 0.401 | 0.581 | 0.541 | 0.512 | 0.512
NCI-H1975 | 0.792 | 0.773 |  | 0.824 | 0.206 | 0.219 | 0.209 | 0.189 | 0.747 | 0.824 | 0.616 | 0.57 | 0.6 | 0.292 | 0.276 | 0.269 | 0.288
NCI-H1993 | 0.751 | 0.843 | 0.771 | 0.826 | 0.81 | 0.869 | 0.744 | 0.702 | 0.579 | 0.537 | 0.525 | 0.546 | 0.549 | 0.62 | 0.529 | 0.5 | 0.581
NCI-H2009 | 1.12 | 1.05 | 0.973 | 0.987 | 1.05 | 1.06 | 1.04 | 0.979 | 0.577 | 0.658 | 0.578 | 0.569 | 0.584 | 1.03 | 1.06 | 1.03 | 1.01
NCI-H2023 | 0.631 | 0.59 | 0.454 | 0.524 | 0.939 | 0.613 | 0.586 | 0.721 | 0.369 | 0.411 | 0.307 | 0.202 | 0.195 | 0.229 | 0.248 | 0.174 | 0.286
NCI-H2085 | 0.829 | 0.956 | 0.75 | 0.859 | 0.436 | 0.376 | 0.503 | 0.372 | 0.84 | 0.895 | 0.806 | 0.72 | 0.656 | 1.02 | 0.675 | 0.844 | 0.992
NCI-H2087 | 0.887 | 0.916 | 0.856 | 0.7 | 0.183 | 0.216 | 0.18 | 0.172 | 0.479 | 0.522 | 0.652 | 0.477 | 0.467 | 0.671 | 0.627 | 0.653 | 0.646
NCI-H2126 | 0.969 | 0.88 | 0.832 | 0.87 | 0.891 | 0.86 | 0.76 | 0.954 | 0.749 | 0.69 | 0.675 | 0.624 | 0.677 | 0.746 | 0.672 | 0.574 | 0.641
NCI-H2170 | 1.12 | 1.07 | 0.873 | 0.989 | 0.752 | 0.686 | 0.544 | 0.624 | 0.733 | 0.715 | 0.766 | 0.66 | 0.679 | 0.252 | 0.281 | 0.251 | 0.269
NCI-H2228 | 0.657 | 0.426 | 0.349 | 0.641 | 0.136 | 0.116 | 0.145 | 0.153 | 0.628 | 0.559 | 0.446 | 0.421 | 0.279 | 0.355 | 0.341 | 0.316 | 0.351
NCI-H2347 | 0.738 | 0.995 | 0.674 | 0.745 | 0.592 | 0.416 |  | 0.516 | 0.419 | 0.42 |  | 0.466 | 0.336 | 0.426 | 0.424 | 0.422 | 0.415
NCI-H2405 | 0.896 | 0.965 | 0.796 | 0.805 | 0.868 | 0.77 | 0.824 | 0.68 | 0.646 | 0.647 | 0.597 | 0.612 | 0.612 | 1.11 | 1.06 | 1.09 | 1.11
NCI-H3122 | 0.282 | 0.378 | 0.33 | 0.312 | 0.0898 | 0.13 | 0.0656 | 0.0782 | 0.875 | 0.913 | 0.791 | 0.317 | 0.4 | 0.194 | 0.191 | 0.196 | 0.195
PC-3 [JPC-3] | 0.913 | 0.942 | 0.784 | 0.827 | 0.683 | 0.771 | 0.612 | 0.636 | 0.786 | 0.699 | 0.808 | 0.736 | 0.682 | 1.17 | 1.13 | 1.05 | 1.08
PC-14 | 1.07 | 0.99 | 0.805 | 0.859 | 0.208 | 0.16 | 0.152 | 0.143 | 0.706 | 0.968 | 0.797 | 0.499 | 0.613 | 0.128 | 0.129 | 0.142 | 0.165
